Data on 2 compounds can be found in patent US20160015817A1, “METHODS OF TREATMENT OF PEDIATRIC SOLID TUMOR” (priority 2013, published 2016).

One data set relates to relapsed RH4 xenografts. Briefly: Relapsed RH4 xenograft model, re-treatment. In kind it is in vivo, mice. Conditions: re-treatment on day 52, 59 and 66, Taxol 30 mg/kg or Abraxane 50 mg/kg. The source says: Tumor growth was monitored.
A further data set deals with RD xenograft. Kind of data set: RD rhabdomyosarcoma xenograft model. In kind it is in vivo, mice. Conditions: Taxol 30 mg/kg weekly, Abraxane 50 mg/kg weekly. How it is done: Control mice received saline.
Tumor growth was assessed in RD xenograft model with paclitaxel/Abraxane treatment. In Abraxane treatment group, tumor-bearing mice received Abraxane (50 mg/kg, weekly) treatment. In paclitaxel treatment group, since tumor sizes are reaching the endpoint after 2-week paclitaxel treatment in paclitaxel group, those mice were randomized into two groups with 5 animals in each group on day 15: one group of animals continued receiving 30 mg/kg of paclitaxel and the other group received 50 mg/kg of Abraxane instead.

A further data set has as its system cleaved caspase-3. Briefly: Immunohistochemistry of SK-N-BE(2) xenografts, apoptotic marker. Conditions: different dosages of Abraxane; Taxol 20 mg/kg/weekly; end of study. In kind it is in vivo, mice.
For data set [1], the system named is phospho-histone H3. Kind of data set: Immunohistochemistry of SK-N-BE(2) xenografts, mitotic marker. Format: in vivo, mice. Conditions: different dosages of Abraxane; Taxol 20 mg/kg/weekly; end of study.
The subject of data set [2] is phospho-histone H3. Kind of data set: Immunohistochemistry of RH4 xenografts, mitotic marker. Format: in vivo, mice. Conditions: 48 hours after Abraxane 50 mg/kg iv or Taxol 30 mg/kg iv. The text has this: Similarly, RH4 xenografts were harvested and analyzed by IHC for phosphor-histone H3.
For the next data set, the system named is RH4 xenograft. Kind of data set: RH4 rhabdomyosarcoma subcutaneous xenograft model. The following applies: for local relapse-free interval: RH4 model.
Data set [3] has as its system 143.98.2 osteosarcoma cells. Format: in vivo. The following applies: nab-paclitaxel 30 mg/kg i.v. days 1-5; gemcitabine 100 mg/kg i.p. twice weekly; p=0.031 combination vs nab-paclitaxel alone. How it is done:
(§1) Briefly, 5×10^6143.98.2 osteosarcoma cells or A673 Ewing's sarcoma cells were suspended in 100 μl PBS and implanted subcutaneously with 33% Matrigel in 5-6 week-old female athymic nu/nu mice. Tumor volume was calculated using the formula L·W2·(π/6), where L=the longest tumor diameter and W=the widest tumor diameter perpendicular to L. When tumors reached 200-300 mm^3, animals were treated with either saline control, nab-paclitaxel 30 mg/kg intravenously on days 1-5 for a single course, gemcitabine 100 mg/kg intraperitoneally twice weekly until death, or the combination of nab-paclitaxel and gemcitabine. Mice were sacrificed once tumors reached 10% body weight (˜2500 mm^3).
(§2) To perform statistical analysis, it was calculated that a sample of 10 mice per group would provide an 80% power to detect a difference in tumor size of 41%, Power was calculated at a significance level of 0.05 using a two-tailed, two sample Student's t-test assuming equal variance. GraphPad Prism 5 software was used to analyze survival by log-rank and tumor growth by two sample Student's t-test.

Data set [4] has as its system A673 Ewing's sarcoma cells. Briefly: A673 Ewing sarcoma subcutaneous xenograft. The following applies: gemcitabine 100 mg/kg i.p. twice weekly with nab-paclitaxel. In kind it is in vivo, mice. How it is done:
as §1, §2

[5] abbreviates: dosing on days 1, 8 and 15, Taxol 30 mg/kg, Abraxane 50 mg/kg.

“Also recorded” adds a separate entry of the source.

For `CC(=O)O[C@H]1C(=O)[C@@]2(C)[C@H]([C@H](OC(=O)c3ccccc3)[C@]3(O)C[C@H](OC(=O)[C@H](O)[C@@H](NC(=O)c4ccccc4)c4ccccc4)C(C)=C1C3(C)C)[C@]1(OC(C)=O)CO[C@@H]1C[C@@H]2O` [Taxol®, paclitaxel], the “response of tumors relapsed after Taxol (paclitaxel) treatment” value in the data set on relapsed RH4 xenografts is “drug resistant against Taxol®”; in the data set with relapsed RH4 xenografts (listed as paclitaxel), “paclitaxel-resistant”. Moreover, the “tumor growth (tumor volume)” value was “slow the growth of RD tumors, but those tumors grew progressively with no signs of tumor regression; also recorded: significantly inhibited tumor growth” in the data set with RD xenograft and “significantly inhibited RH4 tumor growth, with tumor regression observed after the 2nd dosage on day 8” in the data set with RH4 xenograft (Abraxane 50 mg/kg, Taxol 30 mg/kg i.v. weekly). Further, in the data set with cleaved caspase-3, the “apoptotic cell population (cleaved caspase-3 staining)” value is “only slightly increased apoptosis in tumors”. For the same compound, the “phospho-histone H3 positive cells” value with phospho-histone H3 [1] is on record as “only slightly increased phospho-histone H3 positive cells”; in the data set with phospho-histone H3 [2], “Significant increased population of phospho-histone H3 positive cells”. Besides, the “animals that developed relapsed tumors” value in the data set on RH4 xenograft (7 animals per group) is “all Taxol® treated animals demonstrated tumor relapse”. For the same compound, the values for the local relapse-free interval in the data set on RH4 xenograft and in the data set on RH4 xenograft (listed as paclitaxel) were 13.6 ± 2.07 days and 34 days, respectively. Also, in the data set on RH4 xenograft (Taxol 30 mg/kg group, Day 10), the mice that died was 1 out of 7. Further, the “complete regression observed after day” value in the data set with RH4 xenograft (setting [5]) was over 31 days. The “time to tumor relapse after complete regression” value in the data set with RH4 xenograft (setting [5]) was 11 to 15 days.
As to `Nc1ccn([C@@H]2O[C@H](CO)[C@@H](O)C2(F)F)c(=O)n1` [gemcitabine], in data set [3], the tumor growth entry is on record as “appeared additive”. Besides, in data set [4], the “additive benefit of gemcitabine added to nab-paclitaxel” value is recorded as “no additive benefit”.
